For 12 compounds, T/C results are on record in PubChem BioAssay AID328 (DTP/NCI, 2004).

Where “and” joins values, the source holds several entries; their conditions need not be identical. Identical values can stand only once. Toxic doses and inconclusive results are not listed.

The assay has as its system BDF1 mice, P388 leukemia ip, median survival T/C. The assay is described as follows: NCI In Vivo Anticancer Drug Screen. Data for tumor model P388 Leukemia (intraperitoneal) in B6D2F1 (BDF1) mice. The conditions noted are these: endpoint: median survival time, higher = longer survival. In outline: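 Reported as T/C, where T is the survival measurement in dosed animals and C the same measurement in vehicle controls.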

Setting [1] is: dose: 100.0 mg/kg/injection, schedule: Q04DX003 (ip), vehicle: saline with Tween-80.
[2] abbreviates: dose: 200.0 mg/kg/injection, schedule: Q04DX003 (ip), vehicle: saline with Tween-80.
Setting [3] is: dose: 400.0 mg/kg/injection, schedule: Q04DX003 (ip), vehicle: saline with Tween-80.

Consider `C=C1[C@@H](C)[C@H]2[C@H](Cc3ccccc3)NC(=O)[C@]23OC(=O)/C=C/[C@H](O)CCC[C@@H](C)C/C=C/[C@H]3[C@@H]1O`, for which the T/C runs as follows: (dose: 0.25 mg/kg/injection, schedule: Q01DX005 (ip), vehicle: saline with Tween-80) 86 % of control; (dose: 0.5 mg/kg/injection, schedule: Q01DX005 (ip), vehicle: saline with Tween-80) 100 % of control; (dose: 1.0 mg/kg/injection, schedule: Q01DX005 (ip), vehicle: saline with Tween-80) 100 % of control; (dose: 1.0 mg/kg/injection, schedule: Q04DX002 (ip), vehicle: saline) 109 % of control; (dose: 2.0 mg/kg/injection, schedule: Q01DX005 (ip), vehicle: saline with Tween-80) 107 % of control; (dose: 2.0 mg/kg/injection, schedule: Q04DX002 (ip), vehicle: saline) 109 % of control. For the same compound, the T/C was 115 % of control (dose: 4.0 mg/kg/injection, schedule: Q01DX005 (ip), vehicle: saline with Tween-80); 117 % of control (dose: 8.0 mg/kg/injection, schedule: Q01DX005 (ip), vehicle: saline with Tween-80); 109 % of control (dose: 8.0 mg/kg/injection, schedule: Q04DX002 (ip), vehicle: saline); 109 % of control (dose: 16.0 mg/kg/injection, schedule: Q04DX002 (ip), vehicle: saline); 100 % of control (dose: 32.0 mg/kg/injection, schedule: Q04DX002 (ip), vehicle: saline).
`O=C(/C=C/c1ccc(OCc2ccccc2)cc1)c1ccc(F)cc1`: the T/C was 89 % of control (dose: 50.0 mg/kg/injection, schedule: Q01DX009 (ip), vehicle: saline with Tween-80); 98 % of control (dose: 100.0 mg/kg/injection, schedule: Q01DX009 (ip), vehicle: saline with Tween-80); 89 % of control (dose: 200.0 mg/kg/injection, schedule: Q01DX009 (ip), vehicle: saline with Tween-80).
With `Cc1ccc(OC/C=C/CSc2ccc(C)cc2)cc1`, the T/C is 108 % of control (dose: 100.0 mg/kg/injection, schedule: Q04DX003 (ip), vehicle: Klucel (hydroxypropylcellulose) (HPC)); 108 % of control (dose: 200.0 mg/kg/injection, schedule: Q04DX003 (ip), vehicle: Klucel (hydroxypropylcellulose) (HPC)); 108 % of control (dose: 400.0 mg/kg/injection, schedule: Q04DX003 (ip), vehicle: Klucel (hydroxypropylcellulose) (HPC)).
As for `CC(C)N=Cc1ccccc1O.CC(C)N=Cc1ccccc1O.[Ni]`, the T/C runs as follows: (dose: 6.25 mg/kg/injection, schedule: Q04DX003 (ip), vehicle: saline sonified) 105 % of control; (dose: 12.5 mg/kg/injection, schedule: Q04DX003 (ip), vehicle: saline sonified) 105 % of control; (dose: 25.0 mg/kg/injection, schedule: Q04DX003 (ip), vehicle: saline sonified) 115 % of control.
In the case of `C/C=C1/CN(C)C2Cc3c([nH]c4ccccc34)C(c3cc4c5c([nH]c4cc3OC)C3(C(=O)OC)CC4CC(CC)C3N(CC5)C4)CC1C2C(=O)OC` (stereo unspecified), the T/C (dose: 1.3 mg/kg/injection, schedule: Q01DX009 (ip), vehicle: alcohol) was 88 % of control; the T/C (dose: 4.0 mg/kg/injection, schedule: Q01DX009 (ip), vehicle: alcohol) is 87 % of control; the T/C (dose: 12.0 mg/kg/injection, schedule: Q01DX009 (ip), vehicle: alcohol) was 88 % of control.
Regarding `CC1(C)CC2(CC(C)(C)c3cc(O)c(O)cc32)c2cc(O)c(O)cc21`, the T/C was 109 % of control (dose: 100.0 mg/kg/injection, schedule: Q04DX003 (ip), vehicle: saline sonified); 104 % of control (dose: 200.0 mg/kg/injection, schedule: Q04DX003 (ip), vehicle: saline sonified); 100 % of control (dose: 400.0 mg/kg/injection, schedule: Q04DX003 (ip), vehicle: saline sonified).
As for `Cc1cc(Oc2ccc(Cl)cc2NC(=O)Nc2cccc(C(F)(F)F)c2)cc(S(=O)(=O)O)c1Cl`, the T/C was 100 % of control (dose: 25.0 mg/kg/injection, schedule: Q01DX001 (ip), vehicle: other); 108 % of control (dose: 50.0 mg/kg/injection, schedule: Q01DX001 (ip), vehicle: other); 100 % of control (dose: 100.0 mg/kg/injection, schedule: Q01DX001 (ip), vehicle: other).
As for `Cc1cc(C)c(C)[nH]1`, the T/C is, setting by setting: (dose: 3.12 mg/kg/injection, schedule: Q01DX009 (ip), vehicle: water) 87 % of control; (dose: 6.25 mg/kg/injection, schedule: Q01DX009 (ip), vehicle: water) 111 % of control; (dose: 12.5 mg/kg/injection, schedule: Q01DX009 (ip), vehicle: water) 105 % of control; (dose: 12.5 mg/kg/injection, schedule: Q04DX003 (ip), vehicle: water) 91 % of control; (dose: 25.0 mg/kg/injection, schedule: Q01DX009 (ip), vehicle: water) 103 % of control; (dose: 25.0 mg/kg/injection, schedule: Q04DX003 (ip), vehicle: water) 114 % of control. The T/C was 97 % of control (dose: 50.0 mg/kg/injection, schedule: Q01DX009 (ip), vehicle: water) and 107 % of control (dose: 50.0 mg/kg/injection, schedule: Q04DX003 (ip), vehicle: water).
For the compound `CCN(C(=O)CCl)C(C)(C)C(SSSC(c1ccc(Cl)cc1)C(C)(C)N(CC)C(=O)CCl)c1ccc(Cl)cc1` (stereo unspecified), the T/C was 118 % of control (dose: 12.5 mg/kg/injection, schedule: Q01DX009 (ip), vehicle: saline); 116 % of control (dose: 16.5 mg/kg/injection, schedule: Q01DX009 (ip), vehicle: saline); 116 % of control (dose: 25.0 mg/kg/injection, schedule: Q01DX009 (ip), vehicle: saline); 116 % of control (dose: 37.5 mg/kg/injection, schedule: Q01DX009 (ip), vehicle: saline); 118 % of control (dose: 50.0 mg/kg/injection, schedule: Q01DX009 (ip), vehicle: saline).
For `CCCCOC(=O)c1ccc(NC(=O)NCCC)cc1`, the T/C reads like this: under setting [1], 104 % of control; under setting [2], 100 % of control; under setting [3], 109 % of control.
Turning to `O=S(=O)(CCl)OCCCCOS(=O)(=O)CCl`, the T/C (dose: 66.0 mg/kg/injection, schedule: Q01DX009 (ip), vehicle: saline) is 104 % of control.
For `O=C(Nc1ccc(C2=NCCN2)cc1)C1CCC(C(=O)Nc2ccc(C3=NCCN3)cc2)CC1` (stereo unspecified), the T/C is, setting by setting: under setting [1], 150 % of control; under setting [2], 179 % of control; (dose: 264.0 mg/kg/injection, schedule: Q04DX003 (ip), vehicle: saline with Tween-80) 228 % of control and 200 % of control; under setting [3], 225 % of control and 229 % of control and 240 % of control; (dose: 600.0 mg/kg/injection, schedule: Q04DX003 (ip), vehicle: saline with Tween-80) 240 % of control and 245 % of control.
